{"source": "PubChem BioAssay AID2060624", "about": "(Molecular Pharmacology Branch, DTP, NCI, 2025)", "tested_on": "217524-143-R1-J4-PDC spheroids with HUVEC/MSC, viability", "assay": "Anticancer human tumor 217524-143-R1-J4-PDC patient-derived pancreatic carcinoma cell line growth inhibition [CLK]", "details": "for IC50: curve of first compound; for viability, T/C: stronger effect = lower value", "method_in_brief": "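Patient-derived tumor cells grown as complex spheroids with HUVEC endothelial cells and mesenchymal stem cells, treated with drug combinations. Concentrations descend in half-log steps from near clinical Cmax, or from 10 microM if Cmax unknown.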", "key": {"[1]": {"details": "second compound 0.0316 µM, first compound 0.0316 µM"}, "[2]": {"details": "second compound 0.0316 µM, first compound 0.1 µM"}, "[3]": {"details": "second compound 0.0316 µM, first compound 0.316 µM"}, "[4]": {"details": "second compound 0.0316 µM, first compound 1 µM"}, "[5]": {"details": "second compound 0.0316 µM, first compound 3.16 µM"}, "[6]": {"details": "second compound 0.0316 µM, first compound 10 µM"}, "[7]": {"details": "second compound 0.1 µM, first compound 0.0316 µM"}, "[8]": {"details": "second compound 0.1 µM, first compound 0.1 µM"}, "[9]": {"details": "second compound 0.1 µM, first compound 0.316 µM"}, "[10]": {"details": "second compound 0.1 µM, first compound 1 µM"}, "[11]": {"details": "second compound 0.1 µM, first compound 3.16 µM"}, "[12]": {"details": "second compound 0.1 µM, first compound 10 µM"}, "[13]": {"details": "second compound 0.316 µM, first compound 0.0316 µM"}, "[14]": {"details": "second compound 0.316 µM, first compound 0.1 µM"}, "[15]": {"details": "second compound 0.316 µM, first compound 0.316 µM"}, "[16]": {"details": "second compound 0.316 µM, first compound 1 µM"}, "[17]": {"details": "second compound 0.316 µM, first compound 3.16 µM"}, "[18]": {"details": "second compound 0.316 µM, first compound 10 µM"}, "[19]": {"details": "second compound 1 µM, first compound 0.0316 µM"}, "[20]": {"details": "second compound 1 µM, first compound 0.1 µM"}, "[21]": {"details": "second compound 1 µM, first compound 0.316 µM"}, "[22]": {"details": "second compound 1 µM, first compound 1 µM"}, "[23]": {"details": "second compound 1 µM, first compound 3.16 µM"}, "[24]": {"details": "second compound 1 µM, first compound 10 µM"}, "[25]": {"details": "second compound 3.16 µM, first compound 0.0316 µM"}, "[26]": {"details": "second compound 3.16 µM, first compound 0.1 µM"}, "[27]": {"details": "second compound 3.16 µM, first compound 0.316 µM"}, "[28]": {"details": "second compound 3.16 µM, first compound 1 µM"}, "[29]": {"details": "second compound 3.16 µM, first compound 3.16 µM"}, "[30]": {"details": "second compound 3.16 µM, first compound 10 µM"}, "[31]": {"details": "second compound 10 µM, first compound 0.0316 µM"}, "[32]": {"details": "second compound 10 µM, first compound 0.1 µM"}, "[33]": {"details": "second compound 10 µM, first compound 0.316 µM"}, "[34]": {"details": "second compound 10 µM, first compound 1 µM"}, "[35]": {"details": "second compound 10 µM, first compound 3.16 µM"}, "[36]": {"details": "second compound 10 µM, first compound 10 µM"}}, "data": [{"compound": "CC1(C)CCC(CN2CCN(c3ccc(C(=O)NS(=O)(=O)c4ccc(NCC5CCOCC5)c([N+](=O)[O-])c4)c(Oc4cnc5[nH]ccc5c4)c3)CC2)=C(c2ccc(Cl)cc2)C1", "note": "+ CNC(=O)c1ccc(Nc2nc(OC3CCCC3)c3c(-c4ccc5nc(C)oc5c4)c[nH]c3n2)c(OC)c1;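 note: spheroids exposed to agents for seven days before reading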;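 for viability, T/C: 100% = DMSO vehicle control viability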", "values": [{"measurement": "IC50", "setting": "second compound 0.0316 µM", "result": "> 10000", "unit": "nM"}, {"measurement": "IC50", "setting": "second compound 0.1 µM", "result": "< 31.6", "unit": "nM"}, {"measurement": "IC50", "setting": "second compound 0.316 µM", "result": "< 31.6", "unit": "nM"}, {"measurement": "IC50", "setting": "second compound 1 µM", "result": "< 31.6", "unit": "nM"}, {"measurement": "IC50", "setting": "second compound 3.16 µM", "result": "< 31.6", "unit": "nM"}, {"measurement": "IC50", "setting": "second compound 10 µM", "result": "< 31.6", "unit": "nM"}, {"measurement": "viability, T/C", "setting": "[1]", "result": 86.2, "unit": "%"}, {"measurement": "viability, T/C", "setting": "[2]", "result": 87.7, "unit": "%"}, {"measurement": "viability, T/C", "setting": "[3]", "result": 81.2, "unit": "%"}, {"measurement": "viability, T/C", "setting": "[4]", "result": 79, "unit": "%"}, {"measurement": "viability, T/C", "setting": "[5]", "result": 88.5, "unit": "%"}, {"measurement": "viability, T/C", "setting": "[6]", "result": 79.3, "unit": "%"}, {"measurement": "viability, T/C", "setting": "[7]", "result": 42.1, "unit": "%"}, {"measurement": "viability, T/C", "setting": "[8]", "result": 45, "unit": "%"}, {"measurement": "viability, T/C", "setting": "[9]", "result": 38.1, "unit": "%"}, {"measurement": "viability, T/C", "setting": "[10]", "result": 46.1, "unit": "%"}, {"measurement": "viability, T/C", "setting": "[11]", "result": 39.1, "unit": "%"}, {"measurement": "viability, T/C", "setting": "[12]", "result": 37.7, "unit": "%"}, {"measurement": "viability, T/C", "setting": "[13]", "result": 34.1, "unit": "%"}, {"measurement": "viability, T/C", "setting": "[14]", "result": 40.7, "unit": "%"}, {"measurement": "viability, T/C", "setting": "[15]", "result": 38.7, "unit": "%"}, {"measurement": "viability, T/C", "setting": "[16]", "result": 38.2, "unit": "%"}, {"measurement": "viability, T/C", "setting": "[17]", "result": 36.9, "unit": "%"}, {"measurement": "viability, T/C", "setting": "[18]", "result": 37.1, "unit": "%"}, {"measurement": "viability, T/C", "setting": "[19]", "result": 24.4, "unit": "%"}, {"measurement": "viability, T/C", "setting": "[20]", "result": 29.3, "unit": "%"}, {"measurement": "viability, T/C", "setting": "[21]", "result": 31.6, "unit": "%"}, {"measurement": "viability, T/C", "setting": "[22]", "result": 27.4, "unit": "%"}, {"measurement": "viability, T/C", "setting": "[23]", "result": 31.4, "unit": "%"}, {"measurement": "viability, T/C", "setting": "[24]", "result": 25.9, "unit": "%"}, {"measurement": "viability, T/C", "setting": "[25]", "result": 27.4, "unit": "%"}, {"measurement": "viability, T/C", "setting": "[26]", "result": 28.9, "unit": "%"}, {"measurement": "viability, T/C", "setting": "[27]", "result": 24.1, "unit": "%"}, {"measurement": "viability, T/C", "setting": "[28]", "result": 27.2, "unit": "%"}, {"measurement": "viability, T/C", "setting": "[29]", "result": 29.1, "unit": "%"}, {"measurement": "viability, T/C", "setting": "[30]", "result": 22.3, "unit": "%"}, {"measurement": "viability, T/C", "setting": "[31]", "result": 23.1, "unit": "%"}, {"measurement": "viability, T/C", "setting": "[32]", "result": 25.7, "unit": "%"}, {"measurement": "viability, T/C", "setting": "[33]", "result": 24.9, "unit": "%"}, {"measurement": "viability, T/C", "setting": "[34]", "result": 26.4, "unit": "%"}, {"measurement": "viability, T/C", "setting": "[35]", "result": 26.7, "unit": "%"}, {"measurement": "viability, T/C", "setting": "[36]", "result": 24.9, "unit": "%"}]}, {"compound": "CC1COCCN1c1cc(C2(S(C)(=N)=O)CC2)nc(-c2ccnc3[nH]ccc23)n1", "note": "(centres undefined) + CNC(=O)c1ccc(Nc2nc(OC3CCCC3)c3c(-c4ccc5nc(C)oc5c4)c[nH]c3n2)c(OC)c1", "values": [{"measurement": "IC50", "setting": "second compound 0.0316 µM", "result": 1970, "unit": "nM"}, {"measurement": "IC50", "setting": "second compound 0.1 µM", "result": "< 31.6", "unit": "nM"}, {"measurement": "IC50", "setting": "second compound 0.316 µM", "result": "< 31.6", "unit": "nM"}, {"measurement": "IC50", "setting": "second compound 1 µM", "result": "< 31.6", "unit": "nM"}, {"measurement": "IC50", "setting": "second compound 3.16 µM", "result": "< 31.6", "unit": "nM"}, {"measurement": "IC50", "setting": "second compound 10 µM", "result": "< 31.6", "unit": "nM"}, {"measurement": "viability, T/C", "setting": "[1]", "result": 85.7, "unit": "%"}, {"measurement": "viability, T/C", "setting": "[2]", "result": 93.5, "unit": "%"}, {"measurement": "viability, T/C", "setting": "[3]", "result": 71.4, "unit": "%"}, {"measurement": "viability, T/C", "setting": "[4]", "result": 76.3, "unit": "%"}, {"measurement": "viability, T/C", "setting": "[5]", "result": 31.8, "unit": "%"}, {"measurement": "viability, T/C", "setting": "[6]", "result": 22.5, "unit": "%"}, {"measurement": "viability, T/C", "setting": "[7]", "result": 36.8, "unit": "%"}, {"measurement": "viability, T/C", "setting": "[8]", "result": 43.5, "unit": "%"}, {"measurement": "viability, T/C", "setting": "[9]", "result": 37.8, "unit": "%"}, {"measurement": "viability, T/C", "setting": "[10]", "result": 29.2, "unit": "%"}, {"measurement": "viability, T/C", "setting": "[11]", "result": 26.5, "unit": "%"}, {"measurement": "viability, T/C", "setting": "[12]", "result": 19.7, "unit": "%"}, {"measurement": "viability, T/C", "setting": "[13]", "result": 42.2, "unit": "%"}, {"measurement": "viability, T/C", "setting": "[14]", "result": 32.4, "unit": "%"}, {"measurement": "viability, T/C", "setting": "[15]", "result": 34.4, "unit": "%"}, {"measurement": "viability, T/C", "setting": "[16]", "result": 28.1, "unit": "%"}, {"measurement": "viability, T/C", "setting": "[17]", "result": 20.1, "unit": "%"}, {"measurement": "viability, T/C", "setting": "[18]", "result": 15.1, "unit": "%"}, {"measurement": "viability, T/C", "setting": "[19]", "result": 29.9, "unit": "%"}, {"measurement": "viability, T/C", "setting": "[20]", "result": 27.7, "unit": "%"}, {"measurement": "viability, T/C", "setting": "[21]", "result": 28.9, "unit": "%"}, {"measurement": "viability, T/C", "setting": "[22]", "result": 18.1, "unit": "%"}, {"measurement": "viability, T/C", "setting": "[23]", "result": 16.3, "unit": "%"}, {"measurement": "viability, T/C", "setting": "[24]", "result": 12.3, "unit": "%"}, {"measurement": "viability, T/C", "setting": "[25]", "result": 26.7, "unit": "%"}, {"measurement": "viability, T/C", "setting": "[26]", "result": 26, "unit": "%"}, {"measurement": "viability, T/C", "setting": "[27]", "result": 24.7, "unit": "%"}, {"measurement": "viability, T/C", "setting": "[28]", "result": 20.2, "unit": "%"}, {"measurement": "viability, T/C", "setting": "[29]", "result": 10.9, "unit": "%"}, {"measurement": "viability, T/C", "setting": "[30]", "result": 9.73, "unit": "%"}, {"measurement": "viability, T/C", "setting": "[31]", "result": 28.1, "unit": "%"}, {"measurement": "viability, T/C", "setting": "[32]", "result": 26.4, "unit": "%"}, {"measurement": "viability, T/C", "setting": "[33]", "result": 21.7, "unit": "%"}, {"measurement": "viability, T/C", "setting": "[34]", "result": 17.6, "unit": "%"}, {"measurement": "viability, T/C", "setting": "[35]", "result": 12.9, "unit": "%"}, {"measurement": "viability, T/C", "setting": "[36]", "result": 8.77, "unit": "%"}]}]}
